The data set relates to human epidermal keratinocytes. It is filed as cell-based. Particulars: 24 h. As to the method:
Normal human epidermal keratinocytes cultures were utilized to measure the release of proinflammatory cytokines and chemokines. Primary epidermal keratinocytes from neonatal donors were used from human origin and purchased from Thermo-Fisher (Cat No. A13401). […] Cells were cultured until the second passage and then acclimated for 48 hours more before UV-B irradiation. Dosing procedures and cell groups were identified using appropriate cell culture 24-well plates. The cell culture incubator was set at 5% v/v CO2 with temperature and humidity maintained at 36-38° C. and 40-70%, respectively. The test and control substances were administered to HKGS-depleted medium in triplicates. A fixed 5 μL/well from 100× stock dose volume was administered to 500 μL of media to each cell culture well on Day 3 and pre-incubated for 6 hours and then post-UVB incubated for 18 hours. The same procedure was utilized to determine non-toxic concentrations of 1,3-benzene diols after 24 hours of treatment. Cell Viability assays were conducted using MTS reduction assays (Promega) diluted 1:5 in DMEM+10% FBS media as specified by the manufacturer. Absorbance was measured at 490 nm using plate reader and cell viability was calculated as a percent of control. This assay was done along with all culture systems that were utilized to study cytokine release. […]

Compound `C=C(C)[C@@H]1CCC(C)=C[C@H]1c1c(O)cc(CC2CN(C(=O)OCC)C2)cc1O` [KLS-13022, ethyl 3-(3,5-dihydroxy-4-((1R,6R)-3-methyl-6-(prop-1-en-2-yl)cyclohex-2-enyl)benzyl)azetidine-1-carboxylate] returned a non-toxic concentration range of no more than 10 µM.

Values taken from patent publication US20220409578A1, “FUNCTIONALIZED 1,3-BENZENE DIOLS AND THEIR METHOD OF USE FOR THE TREATMENT OF RADIATION DERMATITIS AND OTHER SKIN DISORDERS” (KANNALIFE SCIENCES, INC., priority 2019, published 2022).
